Assay results as given in PubChem BioAssay (NCI).
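Exposure lasted 48 hours, with cells grown in 96-well plates and compounds tested at five concentrations. Abbreviation: GI50, concentration required for 50% inhibition of growth. TGI: concentration producing complete growth inhibition.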

How the values were obtained:
Assay in all cases: NCI tumour cell line growth inhibition, 48 h
U251 CNS = tested on: U251 CNS
A549 NSCLC = tested on: A549 NSCLC
SK-MEL-28 melanoma = tested on: SK-MEL-28 melanoma
OVCAR-5 ovarian = tested on: OVCAR-5 ovarian
MALME-3M melanoma = tested on: MALME-3M melanoma
HCC-2998 colon = tested on: HCC-2998 colon
RPMI-8226 leukemia = tested on: RPMI-8226 leukemia
NCI/ADR-RES ovarian = tested on: NCI/ADR-RES ovarian
HCT-116 colon = tested on: HCT-116 colon
MDA-MB-435 = tested on: MDA-MB-435

SMILES | GI50 (U251 CNS) [µM] | TGI (U251 CNS) [µM] | GI50 (A549 NSCLC) [µM] | TGI (A549 NSCLC) [µM] | GI50 (SK-MEL-28 melanoma) [µM] | TGI (SK-MEL-28 melanoma) [µM] | GI50 (OVCAR-5 ovarian) [µM] | TGI (OVCAR-5 ovarian) [µM] | GI50 (MALME-3M melanoma) [µM] | TGI (MALME-3M melanoma) [µM] | GI50 (HCC-2998 colon) [µM] | TGI (HCC-2998 colon) [µM] | GI50 (RPMI-8226 leukemia) [µM] | TGI (RPMI-8226 leukemia) [µM] | GI50 (NCI/ADR-RES ovarian) [µM] | TGI (NCI/ADR-RES ovarian) [µM] | GI50 (HCT-116 colon) [µM] | TGI (HCT-116 colon) [µM] | GI50 (MDA-MB-435) [µM] | TGI (MDA-MB-435) [µM]
CC(=O)/C=C/c1cn(C(=O)OC(C)(C)C)c2ccc(Br)cc12 | 12.5 | 25.5 | 18.8 | 52.4 | 25.9 | > 68.1 | 25.6 | 53.9 | 52.1 | > 89.2 | 18 | 37.4 | 9.41 | > 66.5 | 17.9 | 45.4 | 8.39 | 21.6 | 9.97 | 25.9
O=S(=O)(Nc1cc(Sc2cccc3cccnc23)c(O)c2ccccc12)c1ccc(F)cc1 | 0.839 | 10.4 | 0.538 | 3.17 | 1.56 | 4.16 | 2.63 | 10.6 | 1.98 | 4.94 | 4.8 | 15.6 | 2.09 | 7.36 | 0.731 | 5.62 | 0.604 | 2.13 | 2.27 | 8.66
O=C1/C(=C/c2ccccc2[N+](=O)[O-])Cc2ccccc21 | 2.89 | 10.6 | 2.5 | 11 | 2.1 | 4.2 | 2.19 | 5.36 | 2.28 | 5.71 | 1.64 | 3.14 | 2.44 | 7.84 | 3.35 | 40.6 | 1.23 | 2.57 | 3.06 | 11.8
CN=c1ccc2nc3ccc(N)cc3sc-2c1 | 1.36 | 10.2 | 0.714 | 13.3 | 7.36 | 24.1 | 9.54 | 23.7 | 1.09 | 3.45 | 4.32 | 38.6 | 0.32 | 18 | 1.6 | 8.44 | 1.29 | 10.3 | 1.42 | 3.24
COc1ccc2c(c1)N(CCO)C1=C(C(=O)OC1)C2c1cccc(F)c1 (stereo not given) | 0.65 | > 50 | 0.746 | > 50 | 5.59 | > 50 | 2.07 | > 50 | 0.391 | > 50 | 1.07 | > 50 | 0.629 | > 50 | 0.297 | > 21.4 | 0.406 | > 50 | 0.112 | 0.348
CCc1ccc2c(c1)N(CCO)C1=C(C(=O)OC1)C2c1cccc(Br)c1 (stereo not given) | 0.494 | 14.5 | 0.655 | 14.8 | 0.473 | 14.3 | 4.37 | 20.8 | 2.58 | 25.6 | 1.05 | 7.82 | 0.983 | 33.5 | 0.278 | 2.21 | 0.449 | 14 | 0.0979 | 0.521
